Data from ChEMBL document CHEMBL4765389, “Antimicrobial and anti-inflammatory activities of short dodecapeptides derived from duck cathelicidin: Plausible mechanism of bactericidal action and endotoxin neutralization” (Eur J Med Chem, 2020).
Activity calls are given as the source filed them. The calls are words filed in the database; no cut-off is given here.

Tests used:
[1] = Antibacterial activity against multidrug-resistant Pseudomonas aeruginosa CCARM 2095 assessed as fractional inhibitory concentration incubated for 24 hrs in presence of ciprofloxacin by CLSI based broth dilution method; type: functional
Candida albicans = test: Antifungal activity against Candida albicans KCTC 7121 assessed as reduction in fungal growth incubated for 24 hrs by CLSI based broth dilution method; type: functional; details: read-out: MIC100
Staphylococcus aureus [2] = test: Antibacterial activity against methicillin-resistant Staphylococcus aureus CCARM 3090 assessed as fractional inhibitory concentration index incubated for 24 hrs in presence of ciprofloxacin by CLSI based broth dilution method; type: functional
[3] = Cytotoxicity against mouse RAW264.7 cells assessed as reduction in cell viability at 20 uM incubated for 24 hrs by MTT assay; type: cell-based; details: read-out: INH
Escherichia coli [4] = test: Bacteriostatic activity against Escherichia coli KCTC 1682 assessed as reduction in colony forming unit at 0.5 times MIC measured for 24 hrs by time kill assay; type: functional
Staphylococcus aureus [5] = test: Antibacterial activity against Staphylococcus aureus KCTC 1621 assessed as reduction in bacterial growth incubated for 24 hrs in presence of 20 % serum by CLSI based broth dilution method; type: functional; details: read-out: MIC100
Cell membrane = test: Induction of cell membrane permeability in Staphylococcus aureus KCTC 1621 assessed as cytoplasmic membrane depolarization at 16 uM by DiSC3-5 dye based spectrofluorometry; type: subcellular
[6] = Therapeutic index, ratio of HC10 for sheep RBC to geometric mean MIC for yeast; type: toxicity; details: sheep red blood cells, read-out: TI
[7] = Drug uptake in Escherichia coli KCTC 1682 assessed as cytoplasmic accumulation at 2 times MIC incubated for 30 mins by confocal laser scanning microscopy; type: ADME; details: 0.5 h
Staphylococcus aureus [8] = test: Antibacterial activity against methicillin-resistant Staphylococcus aureus CCARM 3090 assessed as reduction in bacterial growth incubated for 24 hrs in presence of oxacillin by CLSI based broth dilution method; type: functional; details: read-out: MIC100
Lipopolysaccharide (LPS) = test: Inhibition of Escherichia coli O111:B4 LPS aggregation assessed as increase in FITC-LPS dissociation by spectrofluorometry
RAW264.7 [9] = test: Antiinflammatory activity in mouse RAW264.7 cells assessed as suppression of LPS binding by measuring LPS-FITC aggregation at 10 uM pretreated with LPS for 1 hr followed by compound addition and measured after 30 mins by flowcytometry analysis (reference value: 67.93 %); type: functional; details: 0.5 h
Erythrocyte = test: Hemolytic activity in sheep RBC assessed as reduction in hemoglobin at 256 uM incubated for 1 hr; type: ADME, cell-based, Ovis aries
Staphylococcus aureus [10] = test: Antibacterial activity against methicillin-resistant Staphylococcus aureus CCARM 3095 assessed as reduction in bacterial growth incubated for 24 hrs by CLSI based broth dilution method; type: functional; details: read-out: MIC100
Staphylococcus aureus [11] = test: Antibacterial activity against methicillin-resistant Staphylococcus aureus CCARM 3090 assessed as fractional inhibitory concentration index incubated for 24 hrs in presence of oxacillin by CLSI based broth dilution method; type: functional
[12] = Therapeutic index, ratio of HC10 for sheep RBC to geometric mean MIC for gram negative bacteria; type: toxicity; details: sheep red blood cells, read-out: TI
Staphylococcus aureus [13] = test: Antibacterial activity against methicillin-resistant Staphylococcus aureus CCARM 3090 assessed as reduction in bacterial growth incubated for 24 hrs by CLSI based broth dilution method; type: functional; details: read-out: MIC100
RAW264.7 [14] = test: Antiinflammatory activity against mouse RAW264.7 cells assessed as reduction in LPS-induced TNFalpha mRNA expression at 10 uM incubated for 3 hrs by qRT-PCR analysis; type: functional, cell-based
[15] = Therapeutic index, ratio of HC10 for sheep RBC to geometric mean MIC for gram positive bacteria; type: toxicity; details: sheep red blood cells, read-out: TI
RAW264.7 [16] = test: Antiinflammatory activity in mouse RAW264.7 cells assessed as neutralization of LPS binding by measuring LPS-FITC aggregation at 10 uM pretreated with LPS for 1 hr followed by compound addition and measured after 1 hr by flowcytometry analysis (reference value: 48.12 %); type: functional
RAW264.7 [17] = test: Antiinflammatory activity against mouse RAW264.7 cells assessed as reduction in LPS-induced iNOS mRNA expression at 5 uM incubated for 6 hrs by qRT-PCR analysis; type: functional, cell-based
DNA = test: Binding affinity to Escherichia coli pBR322 DNA assessed as increase in DNA retardation at 8 uM incubated for 1 hr by agarose gel electrophoresis relative to control; type: nucleic-acid assay
[18] = Antibacterial activity against multidrug-resistant Pseudomonas aeruginosa CCARM 2109 assessed as reduction in bacterial growth incubated for 24 hrs by CLSI based broth dilution method; type: functional; details: read-out: MIC100
RAW264.7 [19] = test: Antiinflammatory activity against mouse RAW264.7 cells assessed as reduction in LPS-induced TNFalpha level at 10 uM incubated for 24 hrs by […] relative to control; type: functional
Escherichia coli [20] = test: Bactericidal activity against Escherichia coli KCTC 1682 assessed as reduction in colony forming unit at MIC measured at 3 hrs by time kill assay; type: functional
Staphylococcus aureus [21] = test: Antibacterial activity against methicillin-resistant Staphylococcus aureus CCARM 3090 assessed as fractional inhibitory concentration incubated for 24 hrs in presence of oxacillin by CLSI based broth dilution method; type: functional
Staphylococcus aureus [22] = test: Antibacterial activity against Staphylococcus aureus KCTC 1621 assessed as reduction in bacterial growth incubated for 24 hrs in presence of 6 uM NH4Cl by CLSI based broth dilution method; type: functional; details: read-out: MIC100
Pseudomonas aeruginosa = test: Antibacterial activity against Pseudomonas aeruginosa KCTC 1637 assessed as reduction in bacterial growth incubated for 24 hrs by CLSI based broth dilution method; type: functional; details: read-out: MIC100
Salmonella typhimurium = test: Antibacterial activity against Salmonella typhimurium KCTC 1926 assessed as reduction in bacterial growth incubated for 24 hrs by CLSI based broth dilution method; type: functional, Salmonella enterica subsp. enterica serovar Typhimurium; details: Salmonella enterica, read-out: MIC100
Escherichia coli [23] = test: Antibacterial activity against Escherichia coli KCTC 1682 assessed as reduction in bacterial growth incubated for 24 hrs in presence of 1 mM MgCl2 by CLSI based broth dilution method; type: functional; details: read-out: MIC100
[24] = Antibacterial activity against multidrug-resistant Pseudomonas aeruginosa CCARM 2095 assessed as fractional inhibitory concentration index incubated for 24 hrs in presence of chloramphenicol by CLSI based broth dilution method; type: functional
Staphylococcus aureus [25] = test: Antibacterial activity against methicillin-resistant Staphylococcus aureus CCARM 3090 assessed as fractional inhibitory concentration incubated for 24 hrs in presence of ciprofloxacin by CLSI based broth dilution method; type: functional
[26] = Antibacterial activity against multidrug-resistant Pseudomonas aeruginosa CCARM 2095 assessed as fractional inhibitory concentration index incubated for 24 hrs in presence of ciprofloxacin by CLSI based broth dilution method; type: functional
[27] = Retention time of the compound by RP-HPLC method; type: physicochemical
Escherichia coli [28] = test: Antibacterial activity against Escherichia coli KCTC 1682 assessed as reduction in bacterial growth incubated for 24 hrs in presence of 6 uM NH4Cl by CLSI based broth dilution method; type: functional; details: read-out: MIC100
Bacillus subtilis = test: Antibacterial activity against Bacillus subtilis KCTC 3068 assessed as reduction in bacterial growth incubated for 24 hrs by CLSI based broth dilution method; type: functional; details: read-out: MIC100
[29] = Antibacterial activity against multidrug-resistant Pseudomonas aeruginosa CCARM 2095 assessed as reduction in bacterial growth incubated for 24 hrs in presence of chloramphenicol by CLSI based broth dilution method; type: functional; details: read-out: MIC100

Row | Substance | FIC [1] | MIC (Candida albicans) [µM] | fractional inhibitory concentration index (FICI) (Staphylococcus aureus [2]) | cytotoxicity at 24 h, 20 µM [3] [%] | Activity (Escherichia coli [4]) [log10CFU/ml] | MIC (Staphylococcus aureus [5]) [µM] | Activity (Cell membrane) | selectivity ratio [6] | Drug uptake [7] | MIC (Staphylococcus aureus [8]) [µM] | inhibition (Lipopolysaccharide (LPS)) | Activity (RAW264.7 [9]) [%] | Activity (Erythrocyte) | MIC (Staphylococcus aureus [10]) [µM] | fractional inhibitory concentration index (FICI) (Staphylococcus aureus [11]) | selectivity ratio [12] | MIC (Staphylococcus aureus [13]) [µM] | inhibition (RAW264.7 [14]) | selectivity ratio [15] | Activity (RAW264.7 [16]) [%] | further results
1 | H-LWKKIYRKWKRW-NH2 | 0.125 | 4 | 0.375 | < 10 | 3 | 4 | inactive | 853 | Active | 64 | Dose-dependent effect | 17.64 | Non-Toxic | 8 | 0.375 | 128 | 8 | Active | 753 | 15.47 | inhibition (RAW264.7 [17]): Active; Activity (DNA): 100%; MIC [18]: 4 µM; inhibition at 10 µM (RAW264.7 [19]): 65%; Activity (Escherichia coli [20]): <2 log10CFU/ml; FIC (Staphylococcus aureus [21]): 0.125; MIC (Staphylococcus aureus [22]): 2 µM; MIC (Pseudomonas aeruginosa): 2 µM; MIC (Salmonella typhimurium): 2 µM; MIC (Escherichia coli [23]): 4 µM; fractional inhibitory concentration index (FICI) [24]: 0.375; FIC (Staphylococcus aureus [25]): 0.125; fractional inhibitory concentration index (FICI) [26]: 0.375; Retention_time [27]: 17.3 min; MIC (Escherichia coli [28]): 2 µM; MIC (Bacillus subtilis): 2 µM; MIC [29]: 128 µM
2 | H-LIKKIYRKWKRW-NH2 | 0.125 | 4 | 0.5 | < 10 | 3 | 4 | inactive | 853 | Active | 64 | Dose-dependent effect | 32.51 | Non-Toxic | 8 | 0.375 | 91.4 | 8 | Active | 71.1 | 24.41 | inhibition (RAW264.7 [17]): Active; Activity (DNA): 100%; MIC [18]: 8 µM; inhibition at 10 µM (RAW264.7 [19]): 47.3%; Activity (Escherichia coli [20]): <2 log10CFU/ml; FIC (Staphylococcus aureus [21]): 0.125; MIC (Staphylococcus aureus [22]): 8 µM; MIC (Pseudomonas aeruginosa): 2 µM; MIC (Salmonella typhimurium): 2 µM; MIC (Escherichia coli [23]): 8 µM; fractional inhibitory concentration index (FICI) [24]: 0.313; FIC (Staphylococcus aureus [25]): 0.25; fractional inhibitory concentration index (FICI) [26]: 0.375; Retention_time [27]: 16.2 min; MIC (Escherichia coli [28]): 2 µM; MIC (Bacillus subtilis): 2 µM; MIC [29]: 64 µM
